From US12577235B2, “Crystalline form of CXCR2 antagonist and application thereof” (Shenzhen Optimum Biological Technology Co., Ltd, priority 2019, dated 2026)

Assays:
CXCR2 = biological target: T1, CXCR2 (Homo sapiens, UniProt P25025); experiment: PathHunter CXCR2 β-arrestin cell assay (CXCL8 agonist, chemiluminescence); format: cell-based; conditions: listed as crystalline form A of the compound 1
T1 sequence (P25025 1-360): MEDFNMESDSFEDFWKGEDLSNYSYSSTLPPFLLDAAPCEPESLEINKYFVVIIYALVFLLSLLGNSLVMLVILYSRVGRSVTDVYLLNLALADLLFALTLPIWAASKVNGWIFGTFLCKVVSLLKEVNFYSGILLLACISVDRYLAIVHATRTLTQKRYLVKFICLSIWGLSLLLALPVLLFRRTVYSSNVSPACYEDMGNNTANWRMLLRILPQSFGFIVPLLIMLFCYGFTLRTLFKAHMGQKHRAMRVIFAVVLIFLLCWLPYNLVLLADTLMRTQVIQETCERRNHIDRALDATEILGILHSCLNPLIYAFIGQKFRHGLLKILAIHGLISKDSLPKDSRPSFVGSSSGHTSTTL
Procedure: CXCR2 β-arrestin cells (DiscoverX) of PathHunter® were cultured in standard conditions and inoculated at 20 μL/well to a 384-well white microplate. Before testing, the cells were incubated at 37° C. for an appropriate period of time. The test compound was serially 3-fold diluted in DMSO to give 8 concentrations. Shortly before testing, the serially diluted test samples were further diluted with test buffer to 5 folds of the test concentration. 5 μL of further diluted test samples were added to the cells and the cells were incubated at 37° C. for 30 min. The concentration of vehicle was 1%. 5 μL of 6×EC80 agonist (CXCL8) buffer was then added to the cells, and the cells were incubated at 37° C. for 90 min. The test signal was generated by adding 15 μL (50% v/v) of PathHunter detection mixture reagent in one portion and subsequently incubating the cells for 1 h. The chemiluminescence signal of the microplate was read by a PerkinElmer Envision™ instrument. The biological activities of the test compounds were analyzed by CBIS data analysis kit (ChemInnovation, CA), shown as IC50 values.

[1] = system: rat COPD model induced by smoking combined with lipopolysaccharide; experiment: Anti-inflammation effect in rat COPD model induced by smoking combined with lipopolysaccharide; format: in vivo, SD rats
Procedure: Modeling: the animal model was prepared by exposing the rats to cigarette smoke once daily for 14 days. The rats were smoked for 90 min per day in 2 portions with a break of 10 min. 18 Marlboro cigarettes (with a tar content of 11 mg) were given each time. LPS was administered dropwise via airway at 200 μg/rat once weekly. The administration dropwise was performed on days 6 and 13 of smoke exposure (on the day of LPS administration dropwise, only LPS was administered dropwise for modeling without smoke exposure). • 2. Administration: an aqueous solution of 1% DMSO/20% PEG400/79% (HP-b-CD) was used as the vehicle, and the drugs were administrated intragastrically everyday at a volume of 5 mL/kg for 2 weeks. • 3. Endpoint: On day 15, pulmonary function test, sample collection, inflammatory cell count in bronchoalveolar lavage fluid, pathological analysis, and lung tissue MPO and MMP9 assay were carried out. Procedures of Pulmonary Function Test:
After the last smoking and modeling were finished, pulmonary function was tested for each group of animals on the second day, and pulmonary resistance and compliance were detected under stimulation of methacholine chloride at different doses. The animals were anesthetized by intraperitoneal injection with […] of 25% urethane. After the animals were deeply anesthetized, airway intubation was performed by separating airways, and meanwhile, jugular veins were separated. After breathing stably, the animals were put into a plethysmograph. Drug administration pipelines were inserted into the separated jugular veins. After the animals were in rest state for 1-2 min and the breathing curves were stable, then detection was started. Rats were administered with methacholine chloride at doses of 0, 0.0083, 0.025, 0.075, 0.225, 0.675 mg/kg by jugular vein intubation. The increase in airway resistance and decrease in pulmonary compliance were observed after each administration. After 1-2 min, the parameters returned to near the baseline of the previous concentration of methacholine chloride, and methacholine chloride of the next concentration was injected. After the detection was finished, subsequent alveolar lavage and sample collection were performed.
After the pulmonary function test was finished, the rats were sacrificed by cervical dislocation. After the animals were confirmed dead, the lungs were carefully separated, a lavage syringe was inserted into the main trachea and fixed with 2-0 silk thread. The right lung was ligated. 5 mL of low-temperature normal saline was slowly injected through the lavage syringe. The normal saline was slowly extracted after confirming that the normal saline was injected into the left lung. The operation was repeated twice. By the three lavages, a total of 15 mL of normal saline was injected for lavage. The obtained BALF was injected into a 15 mL centrifuge tube and preserved in a storage box at 4° C. for subsequent BALF cells counting.
After BALF was collected, the right lung which was not infused was taken off and weighted. The two upper lobes of the right lung were put into a cryopreservation tube, frozen in a freezer at −80° C. for later use. Lower lobe tissues were fixed in formalin.
1 mL of homogenously mixed BALF was added into 1 mL of a solution of 1% glacial acetic acid in normal saline. Cells were counted using a hemocytometer. The remaining lavage fluid was centrifuged at 1500 r/min for 10 min at 4° C. to give a cell mass. The cells were resuspended in 200 μL of normal saline, uniformly coated on a glass slide and stained by Wright-Giemsa stain. Macrophages, neutrophils and lymphocytes in a total of 200 cells were counted under a microscope, and the proportions of the cells was calculated. For lavage fluid collection, animals failing the lavage fluid collection were not summarized. […]

[2] = 10 mg/kg vs Danirixin at 30 mg/kg
[3] = 10 mg/kg, methacholine 0.025 mg/kg
[4] = 30 mg/kg vs Danirixin at 30 mg/kg
[5] = at various doses (3, 10, 30 mpk)

## O=C(Nc1ccc(Cl)c(S(=O)(=O)[C@H]2CCCNC2)c1O)N[C@@H]1CCCc2cc(C(F)(F)F)oc21 [crystalline form A]
CXCR2
  Antagonism against the CXCR2 receptor (in words): significant inhibitory effect
[1]; 3 mg/kg
  Pulmonary function improvement and anti-inflammatory effects (summary): significant pulmonary function improvement and anti-inflammatory effects
[1]; 3 mg/kg and 10 mg/kg vs Danirixin at 30 mg/kg
  Pulmonary resistance, effect relative to Danirixin: comparable to that of Danirixin
[1]; 3 mg/kg vs Danirixin at 30 mg/kg
  MPO content in lung tissues, effect relative to Danirixin: comparable effect
[1]; 3 mg/kg, methacholine 0.025 mg/kg
  Pulmonary resistance, methacholine-induced pulmonary function test: significant effects in improving the pulmonary resistance
[1]; [2]
  Lung tissue pathology score, effect relative to Danirixin: comparable of that of Danirixin
  MMP9 content in lung tissue, effect relative to Danirixin: comparable of that of Danirixin
  Number of leukocytes in BALF, effect relative to Danirixin: comparable effect
  Number of neutrophils in BALF, effect relative to Danirixin: comparable effect
  Pulmonary compliance, effect relative to Danirixin: comparable to that of Danirixin
[1]; [3]
  Pulmonary compliance, methacholine-induced pulmonary function test: significant effect in improving the pulmonary compliance
  Pulmonary resistance, methacholine-induced pulmonary function test: significant effects in improving the pulmonary resistance
[1]; [4]
  Lung tissue pathology score, effect relative to Danirixin: superior effect
  MMP9 content in lung tissue, effect relative to Danirixin: superior effect
[1]; 3, 10, 30 mpk
  Lung tissue pathology score, dose dependence: improved the pathology score in a dose-dependent manner
  MMP9 content in lung tissue, dose dependence: reduced the MMP9 content in lung tissue in a dose-dependent manner
  Number of neutrophils in BALF, dose dependence: reduced the number of neutrophils in a dose-dependent manner
[1]; Danirixin 30 mpk, crystalline form A 3-30 mpk
  Anti-inflammatory effect (summary): significant anti-inflammatory effect
[1]; at a lower dose than Danirixin
  Pharmacodynamic effect compared with Danirixin: equivalent pharmacodynamic effect
[1]; at the same dose as Danirixin
  Pharmacodynamic effect compared with Danirixin: superior pharmacodynamic effect
[1]; [5]
  MPO content in lung tissues: significantly reduce the MPO content
  Number of leukocytes in BALF: significantly reduce the number of leukocytes
[1]; down to 3 mg/kg
  Number of neutrophils in BALF: significant effect
[1]; down to 10 mg/kg
  Lung tissue pathology score: significant effect
  MMP9 content in lung tissue: significant effect
